Experiments:
[1] = target: T1, Na/K-ATPase/Src receptor complex (Sus scrofa, UniProt P05024); test: Reconstituted Na/K-ATPase/Src receptor complex, Src pY418 by Western blot (kinase activity assay of Src); type: biochemical, pig; conditions: ouabain 1 μM, 100 μM vanade to inactivate ATPase activity
T1 construct: The α1 Na/K-ATPase was purified from pig kidney; tissue Upstate Biotechnology (Src only); host or cells: pig kidney (Na/K-ATPase)
Experimental: (§1) In one example, the FRET-based in vitro high throughput assay utilizes the in vitro reconstitution of receptor Na/K-ATPase and Src, and a peptide Src substrate-based FRET assay. […] To reconstitute the receptor α1 Na/K-ATPase/Src complex, purified pig kidney Na/K-ATPase was mixed with purified recombinant Src. This receptor complex has an inhibited Src activity. The binding of agonists to the receptor complex releases the inhibited Src and result in an increase in Src activity, which is measured by a peptide-based FRET analysis (FIG. 2A, FIG. 2B). To screen the agonist of receptor Na/K-ATPase/Src complex, the reconstituted receptor is exposed to compounds, and then measured for Src activation using the peptide-based FRET assay.
Phosphorylation of Src pY 418, as an indicator of Src activation, was measured by Western blot. Ouabain was used at 1 μM and the assay was done in the presence of 100 μM vanade to inactivate ATPase activity. Values are mean±S.E. of at least three independent experiments. * p<0.05 compared with control. ** p<0.01 compared with control.
(§2) To assay for receptor antagonist, the reconstituted receptor was exposed to compounds in the presence and absence of an agonist (ouabain) and then assessed whether the compounds could antagonize ouabain-induced activation of Src. To verify that they are specific antagonists of receptor Na/K-ATPase/Src complex, their effects on ouabain-, EGF- and dopamine-induced signal transduction was measured in LLC-PK1 and PY-17 cells.
To determine whether the compound affect the Na/K-ATPase/Src receptor activity, the compounds was incubated with the purified Src (4.5 U) and 1 μg Na/K-ATPase for 15 min at 37° C. Afterward, 2 mM ATP/Mg^2+ was added. The reaction continued for 15 min at 37° C. and was stopped by addition of SDS sample buffer. Afterward, the Src pY418 was measured by anti-pY418 antibody to indicate Src activation.

[2] = target: T1, Na/K-ATPase/Src receptor complex; test: FRET based high throughput screen for agonists and antagonists; type: biochemical, pig; conditions: screen with ouabain plus compounds, followed by cell-based analyses
Source text: Referring now to FIGS. 2A and 2B, there are shown schematic illustrations of a FRET based high throughput assay for agonist and antagonist. […] A pathway-based approach is useful to screen for agonists of Na/K-ATPase/Src receptor targets. Agonist can interact with Na/K-ATPase resulting Src phosphorylation. This active Src transfers the γ-phosphate of ATP to a single tyrosine residue in the synthetic peptide substrate. Then, a site specific protease recognizes and cleaves non-phosphorylated peptides. […] Cleavage disrupts FRET on the peptide, whereas uncleaved, phosphorylated peptides maintain FRET.
This assay is similar as the agonist screening. For example, in the presence of ouabain, antagonist can reduce ouabain induced peptide substrate phosphorylation.
as §1
The chemical library used for screening in the present study contained 100 structurally diverse, drug-like, naturally occurring organic compounds or their semisynthetic derivatives. Stock compounds were prepared at 10 mM in DMSO. The specific activities of Na/K-ATPase of various kidney preparations were in the range of 900-1,200 μmol/mg/h. The high throughput screen was conducted in a Corning 384-well low-volume assay plates at room temperature.
The first step was Kinase Reaction with the final reaction volume of 10 μl. The purified Src (4.5 U) was incubated with 2 μg of the purified Na/K-ATPase in phosphate-buffered saline (PBS) for 5 min. Afterward, the Na/K-ATPase/Src complex was exposed to compounds to screen for agonist or ouabain 10 μM plus compounds to screen antagonists for 10 min. Then, the Src kinase substrate Tyr 2 peptide or phosphor-peptide (control) was added. The reaction was initiated by addition of 2 mM ATP/Mg^2+, continued for 60 min.
The second step was Development Reaction. Each well was added 5 μl Development Solution, then mix the plate and incubate another 60 min. The assay was stopped by adding 5 μl stop reagent and then fluorescent signals were measured.

[3] = test system: ERKs in LLC-PK1 cells; test: Immunostaining assay for active ERK in LLC-PK1 cells; type: cell-based, pig; conditions: pretreated cells exposed to 1 nM ouabain for 60 min
Experimental: as §2
LLC-PK1 cells were pretreated with different concentrations of MB5 for 15 min, exposed to 1 nM ouabain for 60 min, and assayed for active ERKs. A representative set of images is shown. LLC-PK1 cells were pretreated with different concentrations of MB5 for 15 min, exposed to stimuli for either 10 or 3 min, and assayed for active ERKs. A representative set of images is shown.
The data presented in FIGS. 6C-6E show blocking ouabain-induced ERK activation by other antagonists of receptor Na/K-ATPase/Src complex. […] Both control and Tanshinone I-pretreated cells were exposed to ouabain (1 nM) for 1 hour, and processed for immuno-staining of active ERK as in FIG. 6A. A representative set of images are presented from three separate experiments.
LLC-PK1 cells grown on coverslip were serum-starved and treated with MB5 or stimuli for indicated time. […] The signals were detected by a Leica (Wetzlar, Germany) confocal microscope. […]

[4] = test system: ouabain-induced signal transduction in cultured cells; test: Ouabain-induced signal transduction in cultured cells; type: cell-based
Experimental: as §2

[5] = test system: DU145 tumor xenograft; test: DU145 xenograft tumors in NOD/SCID mice; type: in vivo; conditions: 20 mg/kg i.p. every day for 3 weeks
Experimental: FIGS. 8A-8C show the MB5 effect on the growth of DU145 tumor xenografts in NOD/SCID mice Viable DU145 cells (5×10^6) were injected to the flank of NOD/SCID mice. After tumor reached 100 mm^3, mice were injected via i.p. with DMSO or MB5 at a dose of 20 mg/Kg. Values are mean±S.E. ** p<0.01 compared with each control.
Animal protocols were approved by the Institutional Animal Care and Use Committee at the University of Toledo Health Science Campus. Tumor xenografts were established by subcutaneous injection of 5×10^6 DU145 cells into two flanks of 6-week-old female NOD/SCID mice (Charles River). When the tumors reached an average volume of 100 mm^3, mice were injected intraperitoneally with DMSO or MB5 (at doses of 20 mg/kg body weight) every day for 3 weeks.

O=c1c2cccc(O)c2oc2c(O)c(O)ccc12 [MB5, 3,4,5-trihydroxyxanthone]
effect on ouabain-induced Src activation (Src pY418) [1]: antagonizing effects | identification as antagonist of receptor Na/K-ATPase/Src complex (ouabain antagonist) [2]: positively identified as ouabain antagonists | identification as antagonist of receptor Na/K-ATPase/Src complex (ouabain antagonist) ([2]; listed as MB-5): receptor antagonists | effect on ouabain-induced activation of ERKs [3]: blocked | effect on ouabain-induced signal transduction [4]: antagonize | growth of DU145 tumor xenograft [5]: inhibited the growth

From patent publication US20150233925A1, “Assays and Cell-Based Tests Using a Receptor Na/K-ATPase/Src Complex and Uses Thereof” (The University of Toledo, priority 2012, published 2015)
